Test results: patent publication US20080214555A1 (priority 2007, published 2008)

Experiments:
Assay type in all cases: in vivo, human
[1] = tested on: patients with non-ST elevation acute coronary syndrome; assay: MERLIN-TIMI 36: arrhythmias on 7 day continuous ECG (Holter) recording
Method: Continuous ECG (Holter) recording was performed for the first 7 days after randomization. Because of the known prolongation of the QT interval with ranolazine, analyses of a prespecified set of arrhythmias were a major objective of the trial. All arrhythmias were evaluated in the TIMI ECG Core Laboratory by cardiologists blinded to treatment and outcomes.
Continuous ECG (cECG or Holter) recording was performed for the first 7 days after randomization. Prespecified arrhythmia analyses were evaluated by a core laboratory blinded to treatment and outcomes.

[2] = tested on: patients with non-ST elevation acute coronary syndrome; assay: MERLIN-TIMI 36: HbA1c and hyperglycemia
Source text: HbA1c data are reported as least-square means. Patients categorized as “diabetic” had been diagnosed as diabetic before or at the time of randomization. Patients categorized as “no diabetes” had not been diagnosed as diabetic before or at the time of randomization. Some patients characterized as “no diabetes” may have been diagnosed as “diabetic” during the trial; however, these patients are still listed in the “no diabetes” category in FIG. 4B.

[3] = tested on: patients with non-ST elevation acute coronary syndrome; assay: MERLIN-TIMI 36: Seattle Angina Questionnaire scores at 4 months; settings: ITT
Source text: The MERLIN-TIMI 36 secondary efficacy endpoint (ITT) Seattle Angina Questionnaire scores at 4 months for anginal frequency scale are shown in Table 16 below, and scores for physical limitation scale are shown in Table 17 below.

[4] = Example 8 table, first 7 days, n = 3162
[5] = Table 24, all patients dosed, n = 3268
[6] = incidence of ventricular tachyarrhythmias table
[7] = Baseline (in-hospital visit prior to randomization), all patients dosed, n = 3268
[8] = Diabetes at enrollment, n = 1098, Baseline
[9] = Diabetes at enrollment, n = 1098, Final Visit
[10] = Diabetes at enrollment, n = 1098, Month 4
[11] = Diabetes at enrollment, n = 1098, Month 8
[12] = Diabetes at enrollment, n = 1098, Month 16
[13] = Final Visit, all patients dosed, n = 3268
[14] = Month 4, all patients dosed, n = 3268
[15] = Month 8, all patients dosed, n = 3268
[16] = Month 16, all patients dosed, n = 3268
[17] = No Diabetes at enrollment, n = 2170, Baseline
[18] = No Diabetes at enrollment, n = 2170, Final Visit
[19] = No Diabetes at enrollment, n = 2170, Month 4
[20] = No Diabetes at enrollment, n = 2170, Month 8
[21] = No Diabetes at enrollment, n = 2170, Month 16
[22] = at 4 months, 4306 patients with serial measurements
[23] = patients with DM treated with ranolazine

## COc1ccccc1OCC(O)CN1CCN(CC(=O)Nc2c(C)cccc2C)CC1 (racemic) [Ranolazine, (±)-N-(2,6-dimethylphenyl)-4-[2-hydroxy-3-(2-methoxyphenoxy)-propyl]-1-piperazineacetamide]
[1]; Example 8
  Episode of ventricular arrhythmia lasting >=8 beats, %: 5.5%
  Episode of ventricular arrhythmia lasting >=8 beats, number of patients: 175
  New-onset atrial fibrillation, %: 1.7%
  New-onset atrial fibrillation, number of patients: 55
  Pauses >=3 seconds, %: 3.1%
  Pauses >=3 seconds, number of patients: 97
  Supraventricular tachycardia, %: 43.2%
  Supraventricular tachycardia, number of patients: 1413
[1]; [4]
  Any ventricular tachycardia >= 3 beats, %: (29.0) %
  Any ventricular tachycardia >= 3 beats, number: 948
  Brady, Complete heart block, or Pause >= 2.5 sec, %: (38.5) %
  Brady, Complete heart block, or Pause >= 2.5 sec, number: 1257
  Bradycardia < 45 bpm for at least 4 beats, %: (37.8) %
  Bradycardia < 45 bpm for at least 4 beats, number: 1236
  Clinically Significant Arrhythmia on Holter, %: (71.3) %
  Clinically Significant Arrhythmia on Holter, number: 2330
  Pause >3 secs, %: (3.1) %
  Pause >3 secs, number: 97
  Pause >3 secs: AV node block, %: (1.0) %
  Pause >3 secs: AV node block, number: 31
  Pause >3 secs: Other, %: (0.1) %
  Pause >3 secs: Other, number: 2
  Pause >3 secs: Sinoatrial node block, %: (2.0) %
  Pause >3 secs: Sinoatrial node block, number: 64
  Polymorphic VT >= 8 beats, %: (1.2) %
  Polymorphic VT >= 8 beats, number: 38
  Sustained VT (>=30 secs), %: (0.44) %
  Sustained VT (>=30 secs), number: 14
  Sustained VT (>=30 secs): Monomorphic, %: (0.12) %
  Sustained VT (>=30 secs): Monomorphic, number: 4
  Sustained VT (>=30 secs): Polymorphic, %: (0.32) %
  Sustained VT (>=30 secs): Polymorphic, number: 10
  Triplets, %: (46.9) %
  Triplets, number: 1532
  VT >= 4 beats, %: (23.6) %
  VT >= 4 beats, number: 772
  VT >= 8 beats (<30 secs), %: (5.5) %
  VT >= 8 beats (<30 secs), number: 175
[1]; Example 9
  Episode of ventricular tachycardia lasting >8 beats, %: 5.3%
  Episode of ventricular tachycardia lasting >8 beats, number of patients: 166
  New-onset atrial fibrillation, %: 1.7%
  New-onset atrial fibrillation, number of patients: 55
  Pauses >3 seconds, %: 3.1%
  Pauses >3 seconds, number of patients: 97
  Supraventricular tachycardia, %: 44.7%
  Supraventricular tachycardia, number of patients: 1413
[1]; No. of beats ≧8
  Incidence of ventricular tachycardia: 5.3%
[1]; No. of beats ≧10
  Incidence of ventricular tachycardia: 3.5%
[1]; No. of beats ≧15
  Incidence of ventricular tachycardia: 1.3%
[1]; No. of beats ≧20
  Incidence of ventricular tachycardia: 0.9%
[1]; [5]
  Any Clinically Significant Arrhythmia during 7 day Holter, %: (71.3%)
  Any Clinically Significant Arrhythmia during 7 day Holter, number: 2330
  Bradycardic episode during 7 day Holter, %: (38.5%)
  Bradycardic episode during 7 day Holter, number: 1257
  New onset atrial fibrillation during 7 day Holter, %: (1.7%)
  New onset atrial fibrillation during 7 day Holter, number: 55
  Supraventricular tachycardia (any SVT >= 120 bpm) during 7 day Holter, %: (43.2%)
  Supraventricular tachycardia (any SVT >= 120 bpm) during 7 day Holter, number: 1413
  Ventricular tachycardia (any VT >= 100 bpm >= 3 beats) during 7 day Holter, %: (29.0%)
  Ventricular tachycardia (any VT >= 100 bpm >= 3 beats) during 7 day Holter, number: 948
[1]; [6]
  Polymorphic VT >= 8 beats on cECG, %: (1.2) %
  Sustained VT (>=30 sec) on cECG, %: (0.44) %
  VT ≧ 3 beats (≧100 b/m) on cECG, %: (52.1) %
  VT ≧ 4 beats (≧100 b/m) on cECG, %: (20.9) %
  VT ≧ 8 beats (<30 sec) on cECG, %: (5.3) %
[1]; placebo vs ranolazine
  Polymorphic VT >= 8 beats on cECG, Δ n: 10
  Sustained VT (>=30 sec) on cECG, Δ n: 0
  VT ≧ 3 beats (≧100 b/m) on cECG, Δ n: 347
  VT ≧ 4 beats (≧100 b/m) on cECG, Δ n: 279
  VT ≧ 8 beats (<30 sec) on cECG, Δ n: 99
[1]; ranolazine vs placebo
  Polymorphic VT >= 8 beats on cECG, Δ (%): (−21) %
  VT ≧ 3 beats (≧100 b/m) on cECG, Δ (%): (−17) %
  VT ≧ 4 beats (≧100 b/m) on cECG, Δ (%): (−30) %
  VT ≧ 8 beats (<30 sec) on cECG, Δ (%): (−37) %
[1]; subgroup baseline QTc >450 msec
  Incidence of ventricular tachycardia of >8 beats: 5.6%
[1]; subgroup baseline QTc ≦450 msec
  Incidence of ventricular tachycardia of >8 beats: 5.2%
[1]; subgroup ejection fraction <40%
  Incidence of ventricular tachycardia of >8 beats: 8.8%
[1]; subgroup ejection fraction ≧40%
  Incidence of ventricular tachycardia of >8 beats: 5.3%
[2]; [7]
  Patients with HbA1C ≧7%, number: 655
  Patients with HbA1C ≧7%, proportion: (24%)
[2]; [8]
  Patients with HbA1C ≧7%, number: 542
  Patients with HbA1C ≧7%, proportion: (57%)
[2]; [9]
  Patients with HbA1C ≧7%, number: 324
  Patients with HbA1C ≧7%, proportion: (42%)
[2]; [10]
  Patients with HbA1C ≧7%, number: 326
  Patients with HbA1C ≧7%, proportion: (41%)
[2]; [11]
  Patients with HbA1C ≧7%, number: 263
  Patients with HbA1C ≧7%, proportion: (44%)
[2]; [12]
  Patients with HbA1C ≧7%, number: 63
  Patients with HbA1C ≧7%, proportion: (48%)
[2]; [13]
  Patients with HbA1C ≧7%, number: 416
  Patients with HbA1C ≧7%, proportion: (17%)
[2]; [14]
  Patients with HbA1C ≧7%, number: 404
  Patients with HbA1C ≧7%, proportion: (17%)
[2]; [15]
  Patients with HbA1C ≧7%, number: 335
  Patients with HbA1C ≧7%, proportion: (18%)
[2]; [16]
  Patients with HbA1C ≧7%, number: 84
  Patients with HbA1C ≧7%, proportion: (20%)
[2]; [17]
  Patients with HbA1C ≧7%, number: 113
  Patients with HbA1C ≧7%, proportion: (6%)
[2]; [18]
  Patients with HbA1C ≧7%, number: 92
  Patients with HbA1C ≧7%, proportion: (6%)
[2]; [19]
  Patients with HbA1C ≧7%, number: 78
  Patients with HbA1C ≧7%, proportion: (5%)
[2]; [20]
  Patients with HbA1C ≧7%, number: 72
  Patients with HbA1C ≧7%, proportion: (6%)
[2]; [21]
  Patients with HbA1C ≧7%, number: 21
  Patients with HbA1C ≧7%, proportion: (7%)
[2]; [22]
  HbA1c (least-square mean): 5.9%
  HbA1c change from baseline: −0.30%
[2]; diabetic patients, by 1 year of follow-up
  Worsening of hyperglycemia (>1% increase in HbA1c): 14.2%
[2]; diabetic patients, ranolazine vs placebo, 95% CI 0.51, 0.77
  HR, worsening of hyperglycemia: 0.63
[2]; patients with DM
  Reported hypoglycemia: 3%
[2]; [23]
  HbA1c after decline: 6.8%
  HbA1c Δ: −0.64%
[2]; patients with DM treated with ranolazine, starting value
  HbA1c before decline: 7.2%
[2]; patients with DM, at 4 months
  Patients achieving an HbA1c <7%: 59%
[2]; patients without DM at randomization or baseline (fasting glucose <100 mg/dL and HbA1c <6%)
  Incidence of new fasting glucose >110 mg/dL or HbA1c ≧6%: 31.8%
[2]; patients without DM, ranolazine vs placebo, 95% CI 0.53, 0.88
  HR, new fasting glucose >110 mg/dL or HbA1c ≧6%: 0.68
[3]; N 2339
  Seattle Angina Questionnaire physical limitation scale score, 25th percentile-75th percentile: 55.6-94.4
  Seattle Angina Questionnaire physical limitation scale score, Mean (SEM): 72.8 (0.5)
  Seattle Angina Questionnaire physical limitation scale score, Median: 77.8
  Seattle Angina Questionnaire physical limitation scale score, Min-Max: 0-100
[3]; N 2558
  Seattle Angina Questionnaire anginal frequency scale score, 25th percentile-75th percentile: 80-100
  Seattle Angina Questionnaire anginal frequency scale score, Mean (SEM): 84.3 (0.4)
  Seattle Angina Questionnaire anginal frequency scale score, Median: 100
  Seattle Angina Questionnaire anginal frequency scale score, Min-Max: 0-100
